From patent US20070128217A1 (priority 2003, published 2007)

Tests used:
[1] = tested on: antibodies in sera from SARS patients (sera 1a, 1b, 2, 6, 37, 62, London, SARS-yellow, SARS-green); type: binding, human; set-up: Binding of serum 6 to linear peptides of protein X1 of SARS-CoV Urbani / Binding of serum 37 to linear peptides of protein X1 of SARS-CoV Urbani / Binding of serum 6 to looped/cyclic peptide (PEPSCAN-ELISA) / Binding of serum 37 to looped/cyclic peptide (PEPSCAN-ELISA) / Binding of serum 37 to looped/cyclic peptides of protein X1 of SARS-CoV Urbani / Binding of serum 6 to linear peptides of protein X2 / Binding of serum 37 to linear peptides of protein X2 / Binding of serum 37 to looped/cyclic peptides of protein X2 of SARS-CoV Urbani / Binding of serum 6 to linear peptides of protein M of SARS-CoV Urbani / Binding of serum 37 to linear peptides of protein M of SARS-CoV Urbani / Binding of serum 6 to looped/cyclic peptides of protein M of SARS-CoV Urbani / Binding of serum 37 to looped/cyclic peptides of protein M of SARS-CoV Urbani / Binding of serum 6 to linear peptides of protein X3 of SARS-CoV Urbani / Binding of serum 37 to linear peptides of protein X3 of SARS-CoV Urbani / Binding of serum 37 to looped/cyclic peptides of protein X3 of SARS-CoV Urbani / Binding of serum 6 to linear peptides of protein X4 of SARS-CoV Urbani / Binding of serum 37 to linear peptides of protein X4 of SARS-CoV Urbani / Binding of serum 37 to looped/cyclic peptides of protein X4 of SARS-CoV Urbani / Binding of serum 6 to linear peptides of protein X5 of SARS-CoV Urbani / Binding of serum 37 to linear peptides of protein X5 of SARS-CoV Urbani / Binding of serum 37 to looped/cyclic peptides of protein X5 of SARS-CoV Urbani / Binding of serum 6 to linear peptides of protein N of SARS-CoV Urbani / Binding of serum 37 to linear peptides of protein N of SARS-CoV Urbani / Binding of serum 6 to linear peptide (PEPSCAN-ELISA) / Binding of serum 1a to looped/cyclic peptides of protein N of SARS-CoV Urbani / Binding of serum 1b to looped/cyclic peptides of protein N of SARS-CoV Urbani / Binding of serum 2 to looped/cyclic peptides of protein N of SARS-CoV Urbani / Binding of serum 6 to looped/cyclic peptides of protein N of SARS-CoV Urbani / Binding of serum 37 to looped/cyclic peptides of protein N of SARS-CoV Urbani / Binding of serum 62 to looped/cyclic peptides of protein N of SARS-CoV Urbani / Binding of serum London to looped/cyclic peptides of protein N of SARS-CoV Urbani / Binding of serum SARS-green to looped/cyclic peptides of protein N of SARS-CoV Urbani: unit not given here
[2] = tested on: control sera (pooled serum of ten healthy LUMC hospital workers; commercial negative donor pooled serum from the Dutch bloodbank); type: binding, human; set-up: Binding of Control serum LUMC to linear peptides / Binding of Control serum Blood-bank to linear peptides / Binding of Control serum LUMC to looped peptides / Binding of Control Serum Blood-Bank to Looped peptides / Binding of Control serum LUMC to linear peptides of the protein M of SARS-CoV Urbani / Binding of Control serum Blood-bank to linear peptides of the protein M of SARS-CoV Urbani / Binding of Control serum LUMC to looped peptides of the protein M of SARS-CoV Urbani / Binding of Control Serum Blood-Bank to Looped peptides of the protein M of SARS-CoV Urbani: unit not given here
[3] = tested on: rabbit serum obtained by immunizing a rabbit with the SARS-CoV strain Frankfurt 1; type: binding; set-up: Binding of a rabbit serum to linear peptides / Binding of a rabbit serum to looped peptides / Rabbit serum linear peptides / Rabbit serum looped peptides / Binding of a rabbit serum to linear peptides of protein N of SARS-CoV Urbani (Rabbit serum linear peptides) / Binding of a rabbit serum to looped/cyclic peptides of protein N of SARS-CoV Urbani (Rabbit serum looped peptides): unit not given here

Sequence	Binding of Control Serum Blood-Bank to Looped peptides [2]	Binding of Control serum Blood-bank to linear peptides [2]	Binding of Control serum LUMC to linear peptides [2]	Binding of Control serum LUMC to looped peptides [2]	Binding of a rabbit serum to linear peptides [3]	Binding of a rabbit serum to looped peptides [3]	Binding of serum 1a to linear peptides of protein X1 of SARS-CoV Urbani [1]	Binding of serum 1b to linear peptides of protein X1 of SARS-CoV Urbani [1]	Binding of serum 2 to linear peptides of protein X1 of SARS-CoV Urbani [1]	Binding of serum 6 to linear peptides of protein X1 of SARS-CoV Urbani [1]	Binding of serum 37 to linear peptides of protein X1 of SARS-CoV Urbani [1]	Binding of serum 62 to linear peptides of protein X1 of SARS-CoV Urbani [1]	Binding of serum London to linear peptides of protein X1 of SARS-CoV Urbani [1]	Binding of serum SARS-green to linear peptides of protein X1 of SARS-CoV Urbani [1]	Binding of serum SARS-yellow to linear peptides of protein X1 of SARS-CoV Urbani [1]	other results
THITMTTVYHITVSQ	0.6	0.3	0.8	0.7	0.7	0.4	–	–	–	–	–	–	–	–	–	Binding of serum 1a to linear peptides of protein X2 [1]: 0.6; Binding of serum 1a to looped/cyclic peptides of protein X2 of SARS-CoV Urbani [1]: 0.6; Binding of serum 1b to linear peptides of protein X2 [1]: 0.5; Binding of serum 1b to looped/cyclic peptides of protein X2 of SARS-CoV Urbani [1]: 0.6; Binding of serum 2 to linear peptides of protein X2 [1]: 0.4; Binding of serum 2 to looped/cyclic peptides of protein X2 of SARS-CoV Urbani [1]: 0.3; Binding of serum 6 to linear peptides of protein X2 [1]: 0.6; Binding of serum 6 to looped/cyclic peptides of protein X2 of SARS-CoV Urbani [1]: 0.2; Binding of serum 37 to linear peptides of protein X2 [1]: 0.7; Binding of serum 37 to looped/cyclic peptides of protein X2 of SARS-CoV Urbani [1]: 0.5; Binding of serum 62 to linear peptides of protein X2 [1]: 0.4; Binding of serum 62 to looped/cyclic peptides of protein X2 of SARS-CoV Urbani [1]: 0.6; Binding of serum London to linear peptides of protein X2 [1]: 0.4; Binding of serum London to looped/cyclic peptides of protein X2 of SARS-CoV Urbani [1]: 0.2; Binding of serum SARS-green to linear peptides of protein X2 [1]: 0.4; Binding of serum SARS-green to looped/cyclic peptides of protein X2 of SARS-CoV Urbani [1]: 0.3; Binding of serum SARS-yellow to linear peptides of protein X2 [1]: 0.5; Binding of serum SARS-yellow to looped/cyclic peptides of protein X2 of SARS-CoV Urbani [1]: 0.5
VVVHGYFTEVYYQLE	0.4	0.5	1.1	0.7	0.1	0.6	0.8	0.6	0.6	0.4	0.6	0.4	0.2	0.3	0.3	Binding of serum 1a to looped/cyclic peptides of protein X1 of SARS-CoV Urbani [1]: 0.6; Binding of serum 1b to looped/cyclic peptides of protein X1 of SARS-CoV Urbani [1]: 0.5; Binding of serum 2 to looped/cyclic peptides of protein X1 of SARS-CoV Urbani [1]: 0.5; Binding of serum 6 to looped/cyclic peptides of protein X1 of SARS-CoV Urbani [1]: 0.3; Binding of serum 37 to looped/cyclic peptides of protein X1 of SARS-CoV Urbani [1]: 0.5; Binding of serum 62 to looped/cyclic peptides of protein X1 of SARS-CoV Urbani [1]: 0.5; Binding of serum London to looped/cyclic peptides of protein X1 of SARS-CoV Urbani [1]: 0.2; Binding of serum SARS-green to looped/cyclic peptides of protein X1 of SARS-CoV Urbani [1]: 0.3; Binding of serum SARS-yellow to looped/cyclic peptides of protein X1 of SARS-CoV Urbani [1]: 0.4
AGMEAQFLYLYALIY	0.5	0.5	0.6	0.6	0.1	0.6	0.7	0.6	0.6	0.4	0.5	0.4	0.2	0.1	0.2	Binding of serum 1a to looped/cyclic peptide (PEPSCAN-ELISA) [1]: 0.5; Binding of serum 1b to looped/cyclic peptide (PEPSCAN-ELISA) [1]: 0.4; Binding of serum 2 to looped/cyclic peptide (PEPSCAN-ELISA) [1]: 0.4; Binding of serum 6 to looped/cyclic peptide (PEPSCAN-ELISA) [1]: 0.3; Binding of serum 37 to looped/cyclic peptide (PEPSCAN-ELISA) [1]: 0.5; Binding of serum 62 to looped/cyclic peptide (PEPSCAN-ELISA) [1]: 0.6; Binding of serum London to looped/cyclic peptide (PEPSCAN-ELISA) [1]: 0.2; Binding of serum SARS-green to looped/cyclic peptide (PEPSCAN-ELISA) [1]: 0.2; Binding of serum SARS-yellow to looped/cyclic peptide (PEPSCAN-ELISA) [1]: 0.3
